For one data set, the system named is 34931 HGSOC PDX. As to the kind of experiment: HGSOC post-chemo PDX model 34931. It counts as in vivo, NSG mice. Conditions: 34931 post-taxane, cisplatin-refractory PDX; 20 mg/kg i.v. twice a week, 6 weeks. The protocol:
(§1) Two to three mm ovarian tumor fragments were subcutaneously engrafted in the left flank of NSG mice and monitored by physical palpation for tumor growth and engraftment. Engrafted tumors were measured twice a week using digital Vernier calipers and maximum tumor diameter + perpendicular tumor length were digitally recorded into the Study Director software (v 3.0/4.0 StudyLog). Tumor volume was calculated automatically (tumor volume (mm^3) = 0.5236 x [larger diameter (mm) x smaller diameter (mm)^2]). Mice were randomized to treatment once their tumor volume reach 180–300 mm^3 and tumor measurements were performed twice a week up to 120 days or when the tumor volume reaches 700 mm^3.
(§2) Time to progressive disease (PD): Defined as the time (in days) from beginning of treatment to an increase in average tumor volume of >20% from the nadir (taken as the smallest average tumor volume recorded since treatment started or 200 mm^3 if nadir was <200 mm^3 as lesions smaller than this are difficult to measure with accuracy). Median time to harvest (TTH): Defined as the time (in days) from the beginning of treatment to day of harvest at 700 mm^3 and the median TTH was calculated and plotted using Kaplan-Meier curves. Based on ref. [27]. […]

The subject of another data set is SW480. In words: Cell growth inhibition assay, SW480. It counts as cell-based, human. The protocol:
(§3) Cells were plated at a density of between 500 to 5000 cells per well for adherent cell lines depending on doubling time, and 15,000 cells per well for lymphoblastic leukemia cell lines, in a 96-well plate in 200 μl of growth media. Plates were incubated overnight at 37 °C before adding the inhibitors. Inhibitors were serially diluted from the stock solutions in complete medium and added to the cells. Incubation in the presence of inhibitors was continued for 72 days. Cell viability was assessed by the AlamarBlue (Invitrogen) or CellTiterBlue/Glo (Promega) method according to manufacturer’s instructions. The curve fits and IC50 values were generated in PRISM (GraphPad, San Diego, CA).
a Chemical structures of the triazine-based anti-mitotics used in this study. b Dose-dependent antiproliferative activity of key derivatives and comparison with commonly used anti-mitotics in SW480 cell line: Data shown is cell viability (as measured by CellTiterGlo) after 72 h relative to untreated control cells. Shown is mean of 3 independent experiments performed in duplicate +/- SEM. c Dose-dependent cell cycle analysis of key derivatives of WEHI-7326 development in SW480 cell line. Data are presented as percentage of cells in G2/M or subG0 after 24 h incubation with titration of inhibitors as assessed by PI staining and flow cytometry. Mean average of 3 experiments +/- SEM. d Comparison of IC50 and EC50 values of triazine compounds and anti-mitotic drugs in SW480 cell line: inhibition of cellular proliferation and cell cycle arrest in G2/M. IC50 and EC50 values are the mean of 3 independent experiments run in duplicates +/- SEM (n.d. = not determined). e HepG2 cytotoxic assay: cell viability assay after 48 h, normalised to 0.4% DMSO (100% viability) and 2 μM bortezomib (0% viability). The data is the mean average of 2 experiments +/- SD.

A short description of data set [1]: Intravenous pharmacokinetics and tolerability in mice. It counts as in vivo, male Swiss Outbred mice. The protocol: Briefly, intravenous pharmacokinetics and systemic exposure of WEHI-7326 were assessed in non-fasted male Swiss Outbred mice. WEHI-7326 was administered via intravenous bolus injection (10 ml/kg dose volume) and blood samples were collected at 1, 2, 5, 15 and 30 min and 1, 2, 4, 7.5 and 24 h post-dose (n = 2 mice per time point). A maximum of two samples were obtained from each mouse, with samples being taken either via submandibular bleed (approximately 120 μl; conscious sampling) or terminal cardiac puncture (0.6 ml; while mice were anaesthetized using inhaled Isoflurane). Once collected, blood samples were centrifuged immediately, supernatant plasma was removed, and stored in −20 °C until analysis by LC-MS
Parameters were calculated with standard calculations: PlasmaCL=DoseIV/AUCIVVSS=AUMCIV/AUCIV*PlasmaCL
With plasma CL = plasma clearance, AUCIV = area under the plasma concentration vs. time profile, VSS = apparent volume of distribution at steady state, AUMCIV = area under the first moment of the plasma concentration versus time profile from time zero to infinity after IV administration.
a Measured physicochemical and solubility data for WEHI-7326. […] Microsomal-predicted EH values are included.

A further data set relates to PC3. In words: Cell growth inhibition assay, PC3. Conditions: Homo sapiens, PC-3; PC3, prostate carcinoma; 72 h viability assay, CellTiterGlo; mean of 3 ± SEM; read-out: IC50 (inhibition of cellular proliferation). It counts as cell-based. The protocol:
as §3

For the next data set, the system named is LIM1899. In words: Cell growth inhibition assay, LIM1899. It counts as cell-based. Conditions: Homo sapiens; LIM1899, colon carcinoma; 72 h viability assay, CellTiterGlo; mean of 3 ± SEM; read-out: IC50 (inhibition of cellular proliferation). The protocol: as §3, with “Incubation in the presence of inhibitors was continued for 72 days.” left out
For a further data set, the system named is 134197 HGSOC PDX. As to the kind of experiment: HGSOC PDX model 134197. Conditions: 134197 cisplatin-resistant PDX; 20 mg/kg i.v. biweekly, 6 weeks. It counts as in vivo, NSG mice. The protocol:
as §1, §2

Where [2] appears, read: mouse, plasma, iv, male Swiss outbred mice, i.v. 15 mg/kg.

The source of these data is PMC7955127, “Preclinical small molecule WEHI-7326 overcomes drug resistance and elicits response in patient-derived xenograft models of human treatment-refractory tumors” (Cell Death & Disease, 2021).

Broadly, the clearance is the rate of elimination divided by the concentration. Read a low clearance as a low capacity for elimination. One may read the half-life as the time needed for the level to fall by half in the phase considered. Low values mean fast loss, high ones slow loss.

As to `COc1ccc(CNc2nc(NCc3ccc(CN)cc3)nc(NN3CC(=O)NC3=O)n2)cc1` [WEHI-7326], the Tumor response entry in the data set on 34931 HGSOC PDX is on record as “ineffective”. Besides, in the data set with SW480 (Homo sapiens, SW480, colon carcinoma, 72 h viability assay, CellTiterGlo, mean of 3 ± SEM, read-out: IC50 (inhibition of cellular proliferation)), the IC50 stood at 39.5 ± 4.1 nM. The “Potency relative to myoseverin B” value with SW480 (SW480) is listed as “almost ten-fold”. In addition, in the data set with SW480 (SW480 colon cancer cell line in vitro), the Concentration inhibiting proliferation entry is given as “at or below micromolar concentration”. Moreover, in data set [1] (Swiss outbred mice, i.v., up to a dose of 30 mg/kg), the Adverse reactions entry is listed as “no adverse reactions or compound-related side effects”. In data set [1] (setting [2]), this compound showed a clearance of 53 mL/min/kg and a half-life of 378 min. In addition, the Vd in data set [1] (mouse, plasma, iv, male Swiss outbred mice, i.v. 15 mg/kg, read-out: Apparent volume of distribution) came out at 4.7 L/kg. Moreover, the IC50 in the data set on PC3 turned out to be 48.9 ± 11.1 nM. For the same compound, the IC50 in the data set on LIM1899 is 31.3 ± 2.6 nM. For the same compound, in the data set on 134197 HGSOC PDX, the “Median time to harvest (TTH)” value amounted to 92 days and the “Time to progressive disease (PD)” value turned out to be 35 days.
